We go through 1 molecule from patent US20230391817A1, “5ALPHA-HYDROXY-6BETA-[2-(1-H-IMIDAZOL-4-YL)-ETHYLAMINO]-CHOLESTAN-3BETA-OL ANALOGUES AND PHARMACEUTICAL COMPOSITIONS COMPRISING SAME FOR USE IN THE TREATMENT OF CANCER” (priority 2020, published 2023).

In this test the target is T1, Cholesterol Epoxide Hydrolase (ChEH) (Homo sapiens, UniProt Q15125+Q9UBM7).
T1 construct: endogenous in cells; host or cells: MCF-7
Put plainly: Cholesterol Epoxide Hydrolase (ChEH) activity in MCF-7 cells, [14C]5,6α-EC metabolism by TLC. It is filed as cell-based. The conditions noted are these: 1 μM, 24 h, [14C]5,6α-EC 0.6 μM. From the text:
The compounds 5,6α-epoxycholesterol (5,6α-EC) and 5,6p-epoxycholesterol (5,6p-EC) are oxysterols involved in the anticancer pharmacology of tamoxifen, a widely used antitumor drug. Both are metabolized to cholestane-3β,5α,6β-triol (CT) by the enzyme cholesterol-5,6-epoxide hydrolase (ChEH), and CT is metabolized by the enzyme HSD11B2 (11β-hydroxysteroid dehydrogenase 2) to 6-oxocholestane-3β,5α-diol (OCDO), a tumor-promoting oncosterone.
MCF-7 cells are in a cell culture medium identical to that of Example 5 and are seeded in 6-well plates at 150 000 cells per well with three wells per treatment condition. […] Tamoxifen is used as a positive control for 3α-fluoro-5α-hydroxy-6β-[2-(1H-imidazol-4-yl)ethylamino]cholestane and 5α-hydroxy-6β-[2-(1H-imidazol-4-yl)ethylamino]cholestan-3β-ol (1 μM for all molecules).
After 24 hours of treatment, the media are collected and lipid extracts are prepared from the cell pellets by extraction with 100 μL of chloroform, 400 μL of methanol, and 300 μL of water.
The lipid extracts are analyzed by thin layer chromatography (TLC) using ethyl acetate (EtOAc) as eluent. The analysis is performed with a plate reader and then by autoradiography.

T1 sequence (Q15125 whole entry): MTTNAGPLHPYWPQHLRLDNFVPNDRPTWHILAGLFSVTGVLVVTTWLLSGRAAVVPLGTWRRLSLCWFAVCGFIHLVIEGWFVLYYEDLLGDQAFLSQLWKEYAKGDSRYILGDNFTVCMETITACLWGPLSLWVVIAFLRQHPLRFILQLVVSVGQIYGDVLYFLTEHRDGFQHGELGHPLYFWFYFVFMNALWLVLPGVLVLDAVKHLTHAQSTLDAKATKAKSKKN
T1 sequence (Q9UBM7 whole entry): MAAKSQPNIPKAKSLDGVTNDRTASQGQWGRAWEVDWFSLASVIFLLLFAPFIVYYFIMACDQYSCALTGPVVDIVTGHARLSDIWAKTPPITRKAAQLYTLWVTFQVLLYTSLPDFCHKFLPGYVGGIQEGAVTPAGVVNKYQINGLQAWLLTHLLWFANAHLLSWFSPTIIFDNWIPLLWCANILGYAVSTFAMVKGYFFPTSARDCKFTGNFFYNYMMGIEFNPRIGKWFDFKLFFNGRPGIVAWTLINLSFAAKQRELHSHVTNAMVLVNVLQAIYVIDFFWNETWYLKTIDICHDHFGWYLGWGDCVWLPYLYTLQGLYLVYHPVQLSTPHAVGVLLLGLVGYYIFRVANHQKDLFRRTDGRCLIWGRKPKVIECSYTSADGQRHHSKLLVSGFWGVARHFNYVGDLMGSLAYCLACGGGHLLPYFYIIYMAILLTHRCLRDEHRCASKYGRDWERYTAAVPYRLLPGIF

In the case of `CC/C(=C(\c1ccccc1)c1ccc(OCCN(C)C)cc1)c1ccccc1` [tamoxifen, reference compound], the “inhibition of ChEH activity” value is reported as “total inhibition”.
